# Reference: patent publication US7179821B2, “Method of treating of demyelinating diseases or conditions” (Aventis Pharmaceuticals Inc., priority 2001, dated 2007)
# Marks after values point to notes of the source that are not given here.
# System: moderate chronic (35 days post-injury) spinal cord crush
# Assay: Long standing moderate spinal cord crush (35 days), OFT score
# Type: in vivo, rat
# Source text: A tabular representation of the results from both chronic spinal cord injury studies (drugs first administered 25 days after a mild spinal cord crush and 35 days after a moderate spinal cord crush) are shown in Table 5.
# One hundred fifty adult female Wistar rats, 250–300 g weight, obtained from Charles River were housed in the McMaster University Health Sciences Centre (HSC) Central Animal Facilities (CAF) for at least one week. During that time they were exposed to the performance tests described below, to ensure they were familiar with them. Rats were handled daily for 2 weeks prior to surgery.
# Rats were anesthetized using isoflurane (3–5%): O2 (1 L/min) in an appropriately equipped surgical suite in the CAF. Temgesic (0.03 mg/kg body weight, subcutaneously (SQ)) was administered prior to surgery for pain relief. Spinal cords were crushed (compressed) with a 3.5 mm wide modified coverslip forceps (Blight 1991, procedure revised by Rathbone laboratory). The forceps were closed to 1.4 mm for 15 sec, which produced injury level equivalent to the mid-level (moderate) outcome on the Gruner scale (1996). The compression injury was otherwise performed according to the procedure described by Blight (1991).
# Changes in locomotor behaviour and segmental reflexes were assessed up to 5 weeks post injury. Animals were tested in an open field walking task, hind limb placement and foot orientation. The animals were evaluated on days 2, 7, 14, 21, 28 and 35 after surgery. By 35 days after surgery, almost no further spontaneous recovery occurs. Therefore treatment began on day 35.
# HP184 was dissolved in sterilized (autoclaved) deionized reverse-osmosis water acidified with glacial acetic acid (0.1 ml acid per 10 ml of water). 4-AP (Sigma, molecular weight 94.12; Jankowska E. et al., 1982; Gruner et al., 1999) was dissolved in physiological saline (0.6 mg/kg b.w.) and was administered by i.p. injection. One group of rats (vehicle control-1) received by oral gavage vehicle. Behaviourial testing was done immediately prior to receiving the gavage and at 3 hours thereafter. Then, the rats were scarified on day 35. All the other rats received either HP184 by oral gavage (0.3, 1, or 3 mg/kg bw depending on the group) or 4-AP (0.6 mg/kg, i.p.) or vehicle (vehicle control-2) once a day on the 35 to 42 days after surgery. On these days behaviourial tests were done immediately prior to receiving the gavage at 3 and 24 hours thereafter. Then, the rats were perfused on day 43 after the last behaviourial testing.
# Statistical analyses were performed on a Macintosh computer using GB-Stat ppc 6.5.2. The behavioral scores were analyzed by the Kruskal-Wallis nonparametric analysis of variance (ANOVA). Post hoc comparisons were made using Mann-Whitney U tests.
smiles,measurement,setting,value
"CCCN(c1ccncc1F)n1cc(C)c2ccccc21 [HP184, N-(3-fluoro-4-pyridinyl)-N-propyl-3-methyl-1H-indole-1-amine]","recovery of locomotor function, comparison of the doses","3 mg/kg po vs 0.3 and 1 mg/kg, days 35–42",produced the best recovery of locomotor function
same,"% possible improvement, moderate",3 mpk po,24.8%*
same,"Delta of OFT score, Day 35 to Day 39 (moderate)",3 mpk po,.274
same,OFT score Day 39 (moderate) 3 hrs after last dose,3 mpk po daily,4.17 ± .058
same,"open field locomotor ability (mean OFT scores) vs vehicle, FIGS. 6a and 6b","HP184 0.3, 1 or 3 mg/kg po or 4-AP 0.6 mg/kg ip once a day, days 35–42, treatment effect p<0.01",significantly different from that of control animals receiving vehicle
same,OFT score Day 35 (moderate) prior,"group 3 mpk po, baseline before dosing",3.89 ± .054
